# Data published in the supplement of paper PMC11208160.
# Assay: recombinant UMI read abundance after kanamycin selection (control-corrected) (log10(CPM+1)); higher = more efficient recombination; extreme values may be limits of the assay; sequences stand for … in AGTGCAGAGAAAATCGGCCAGTTTTCTCTGCCTGCAGTCCGCATGCCGTGGGACCCCTTGGGTTCTAACCTGTTGCCTAGATTTATGCAGCGGACTGCCTTTCTCCCAAAGTGATAAACCGG…AGGTTGGTTTCACT; site = the 11-nt donor
# In short: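 In a pooled Escherichia coli screen for the IS621 bridge recombinase, donor and donor-binding-loop pairs were each placed with a 12-nt UMI on a plasmid bearing a promoterless kanamycin gene. This library was co-electroporated with a target plasmid encoding a fixed target and T7-inducible recombinase, and cells were plated either on IPTG (0.07 mM) plus kanamycin or without selection, in two replicates each. Recombinant UMIs were PCR-amplified across the donor–target junction and sequenced, and counts were converted to CPM, averaged over replicates, scaled by control-derived factors and reported as log10(CPM+1).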
row,Sequence,recombinant UMI read abundance (log10)
1,GTTGCTCCATGGACCGGTTTTCCCGGTAATCCGTATTTGGT (site GTTGTTCCTAC),0.0159
2,GTTGCTGCATGGACCGGTTTTCCCGGTAATCCGTATTTGGC (site GTTGCTGCTGC),0.902
3,GTTGGAACATGGACCGGTTTTCCCGGTAATCCGTATTTGGC (site GTTAGAACTGC),1.13
4,GTTGGAACATGGACCGGTTTTCCCGGTAATCCGTATTTGGC (site GTTCGAACTGC),0
5,GTTGGAACATGGACCGGTTTTCCCGGTAATCCGTATTTGGC (site GTTGGAACTGC),2.55
6,GTTGGAACATGGACCGGTTTTCCCGGTAATCCGTATTTGGC (site GTTTGAACTGC),0
7,GTTGGAGCATGGACCGGTTTTCCCGGTAATCCGTATTTGCA (site GTTAGAGCTTG),2.17
8,GTTGGAGCATGGACCGGTTTTCCCGGTAATCCGTATTTGCA (site GTTCGAGCTTG),0
9,GTTGGAGCATGGACCGGTTTTCCCGGTAATCCGTATTTGCA (site GTTGGAGCTTG),2.49
10,GTTGGAGCATGGACCGGTTTTCCCGGTAATCCGTATTTGCA (site GTTTGAGCTTG),0.659
11,GTTGGTCCATGGACCGGTTTTCCCGGTAATCCGTATTTGGT (site GTTGATCCTAC),0.0104
12,GTTGGTCCATGGACCGGTTTTCCCGGTAATCCGTATTTGGT (site GTTGCTCCTAC),0.00872
13,GTTGGTCCATGGACCGGTTTTCCCGGTAATCCGTATTTGGT (site GTTGGTCCTAC),0.0121
14,GTTGGTCCATGGACCGGTTTTCCCGGTAATCCGTATTTGGT (site GTTGTTCCTAC),0.00359
15,GTTGTTCCATGGACCGGTTTTCCCGGTAATCCGTATTTGGA (site GTTGTTCCTAC),0
16,GTTGTTCCATGGACCGGTTTTCCCGGTAATCCGTATTTGGA (site GTTGTTCCTCC),0.00995
17,GTTGTTCCATGGACCGGTTTTCCCGGTAATCCGTATTTGGA (site GTTGTTCCTGC),0
18,GTTGTTCCATGGACCGGTTTTCCCGGTAATCCGTATTTGGA (site GTTGTTCCTTC),0.0132
19,GTTTAGCCATGGACCGGTTTTCCCGGTAATCCGTATTTGGC (site GTTTAGCCTGC),0
20,GTTTATCCATGGACCGGTTTTCCCGGTAATCCGTATTTGCT (site GATTATCCTAG),0
21,GTTTATCCATGGACCGGTTTTCCCGGTAATCCGTATTTGCT (site GCTTATCCTAG),0
22,GTTTATCCATGGACCGGTTTTCCCGGTAATCCGTATTTGCT (site GGTTATCCTAG),0
23,GTTTATCCATGGACCGGTTTTCCCGGTAATCCGTATTTGCT (site GTTTATCCTAG),0.492

row,Sequence,recombinant UMI read abundance (log10)
1,GTTTCGGCATGGACCGGTTTTCCCGGTAATCCGTATTTGGG (site CGGGGCACTAA),0.0198
2,GTTTGAACATGGACCGGTTTTCCCGGTAATCCGTATTTGGC (site GTTAGAACTGC),0
3,GTTTGAACATGGACCGGTTTTCCCGGTAATCCGTATTTGGC (site GTTCGAACTGC),0
4,GTTTGAACATGGACCGGTTTTCCCGGTAATCCGTATTTGGC (site GTTGGAACTGC),0
5,GTTTGAACATGGACCGGTTTTCCCGGTAATCCGTATTTGGC (site GTTTGAACTGC),0
6,GTTTGCACATGGACCGGTTTTCCCGGTAATCCGTATTTGCA (site GTTTGCACTTG),0.292
7,GTTTGGACATGGACCGGTTTTCCCGGTAATCCGTATTTGGA (site GTTTGGACTTC),0.0184
8,TAAAACTCATGGACCGGTTTTCCCGGTAATCCGTATTTGGG (site TAAAACTCTCC),0.00919
9,TAAAATACATGGACCGGTTTTCCCGGTAATCCGTATTTGCA (site TAAAATACTTG),0
10,TAAAATACATGGACCGGTTTTCCCGGTAATCCGTATTTGCA (site TACAATACTTG),0.953
11,TAAAATACATGGACCGGTTTTCCCGGTAATCCGTATTTGCA (site TAGAATACTTG),0
12,TAAAATACATGGACCGGTTTTCCCGGTAATCCGTATTTGCA (site TATAATACTTG),0.614
13,TAAACCGCATGGACCGGTTTTCCCGGTAATCCGTATTTGCG (site TAAACCGCTCG),1.29
14,TAAAGACCATGGACCGGTTTTCCCGGTAATCCGTATTTGTA (site TAAAGACCTTA),0.299
15,TAAAGACCATGGACCGGTTTTCCCGGTAATCCGTATTTGTA (site TAAAGCCCTTA),0.624
16,TAAAGACCATGGACCGGTTTTCCCGGTAATCCGTATTTGTA (site TAAAGGCCTTA),0.257
17,TAAAGACCATGGACCGGTTTTCCCGGTAATCCGTATTTGTA (site TAAAGTCCTTA),0.166
18,TAAAGAGCATGGACCGGTTTTCCCGGTAATCCGTATTTGGG (site TAAAGAGCTCC),0.356
19,TAAAGAGCATGGACCGGTTTTCCCGGTAATCCGTATTTGGG (site TAACGAGCTCC),0.0368
20,TAAAGAGCATGGACCGGTTTTCCCGGTAATCCGTATTTGGG (site TAAGGAGCTCC),0.0278
21,TAAAGAGCATGGACCGGTTTTCCCGGTAATCCGTATTTGGG (site TAATGAGCTCC),0.00709
22,TAAAGCTCATGGACCGGTTTTCCCGGTAATCCGTATTTGTT (site TAAAGCTCTAA),1.48
23,TAAAGTCCATGGACCGGTTTTCCCGGTAATCCGTATTTGGA (site TAAAGTCCTTA),0.0112

row,Sequence,recombinant UMI read abundance (log10)
1,TAAAGTCCATGGACCGGTTTTCCCGGTAATCCGTATTTGGA (site TAAAGTCCTTC),0.231
2,TAAAGTCCATGGACCGGTTTTCCCGGTAATCCGTATTTGGA (site TAAAGTCCTTG),0
3,TAAAGTCCATGGACCGGTTTTCCCGGTAATCCGTATTTGGA (site TAAAGTCCTTT),0.978
4,TAAAGTCCATGGACCGGTTTTCCCGGTAATCCGTATTTGTC (site TAAAGTCCTAA),0.0955
5,TAAAGTCCATGGACCGGTTTTCCCGGTAATCCGTATTTGTC (site TAAAGTCCTCA),0.00821
6,TAAAGTCCATGGACCGGTTTTCCCGGTAATCCGTATTTGTC (site TAAAGTCCTGA),0.327
7,TAAAGTCCATGGACCGGTTTTCCCGGTAATCCGTATTTGTC (site TAAAGTCCTTA),0.00692
8,TAAAGTCCATGGACCGGTTTTCCCGGTAATCCGTATTTGTT (site TAAAGTCCTAA),0.293
9,TAAAGTCCATGGACCGGTTTTCCCGGTAATCCGTATTTGTT (site TAAAGTCCTCA),0.0132
10,TAAAGTCCATGGACCGGTTTTCCCGGTAATCCGTATTTGTT (site TAAAGTCCTGA),0
11,TAAAGTCCATGGACCGGTTTTCCCGGTAATCCGTATTTGTT (site TAAAGTCCTTA),0
12,TAAAGTTCATGGACCGGTTTTCCCGGTAATCCGTATTTGTA (site TAAAGTACTTA),0.0179
13,TAAAGTTCATGGACCGGTTTTCCCGGTAATCCGTATTTGTA (site TAAAGTCCTTA),0.153
14,TAAAGTTCATGGACCGGTTTTCCCGGTAATCCGTATTTGTA (site TAAAGTGCTTA),0.00586
15,TAAAGTTCATGGACCGGTTTTCCCGGTAATCCGTATTTGTA (site TAAAGTTCTTA),1.59
16,TAAATAACATGGACCGGTTTTCCCGGTAATCCGTATTTGCT (site TAAATAACTAG),0
17,TAAATACCATGGACCGGTTTTCCCGGTAATCCGTATTTGCG (site TAAATACCTCG),0
18,TAAATGCCATGGACCGGTTTTCCCGGTAATCCGTATTTGGA (site TAAATGCCTTC),0.2
19,TAACACGCATGGACCGGTTTTCCCGGTAATCCGTATTTGAG (site TAACACGCTCT),1.48
20,TAACAGACATGGACCGGTTTTCCCGGTAATCCGTATTTGGT (site TAACAGACTAC),0.99
21,TAACATTCATGGACCGGTTTTCCCGGTAATCCGTATTTGGG (site TAACATTCTCC),0.809
22,TAACCGGCATGGACCGGTTTTCCCGGTAATCCGTATTTGGT (site TAACCGGCTAC),0.35
